Measured values as given in article PMC4641600, “Novel Activities of Select NSAID R-Enantiomers against Rac1 and Cdc42 GTPases” (PLoS ONE, 2015).
Where two headings read alike, the source gives them in different places. Values belong to the compound of their own block, whether it stands above or below them.

Key:
[1] = tested on: migration Rac1/Cdc42 dependent; assay: Migration IC50 (Table F); type: cell-based; settings: ketorolac, calculated by GraphPad Prism5; read-out: IC50 migration Rac1/Cdc42 dependent (est)
[2] = IV dose of 30 mg; cited from earlier work
Cdc42 [3] = target: T1, Cdc42 (Mus musculus, UniProt P60766); assay: GLISA, Swiss 3T3 cells; type: cell-based
T1 construct: endogenous in cells; host or cells: Swiss 3T3
T1 sequence (P60766 whole entry): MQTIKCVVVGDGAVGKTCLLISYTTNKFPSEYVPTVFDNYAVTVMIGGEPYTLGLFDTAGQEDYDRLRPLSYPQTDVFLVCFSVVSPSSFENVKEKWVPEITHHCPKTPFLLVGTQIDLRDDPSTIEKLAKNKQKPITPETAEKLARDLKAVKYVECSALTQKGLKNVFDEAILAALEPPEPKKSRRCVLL

[4] = tested on: migration Rac1/Cdc42 dependent; design: method as in ref 28 (a number printed in a supplementary file, which may have a reference list of its own: not looked up in the article's list); settings: read-out: IC50 migration Rac1/Cdc42 dependent (est); cited from earlier work
Cdc42 [5] = settings: cited from earlier work
human COX-1 = target: T2, human COX-1 (Homo sapiens, UniProt P23219); assay: Cyclooxygenase assay (CEREP), PGE2 formation; type: biochemical; settings: recombinant enzyme, 4 μM arachidonic acid
T2 construct: purchased CEREP Laboratories (contract assay); host or cells: Sf-9
T2 sequence (P23219 24-599): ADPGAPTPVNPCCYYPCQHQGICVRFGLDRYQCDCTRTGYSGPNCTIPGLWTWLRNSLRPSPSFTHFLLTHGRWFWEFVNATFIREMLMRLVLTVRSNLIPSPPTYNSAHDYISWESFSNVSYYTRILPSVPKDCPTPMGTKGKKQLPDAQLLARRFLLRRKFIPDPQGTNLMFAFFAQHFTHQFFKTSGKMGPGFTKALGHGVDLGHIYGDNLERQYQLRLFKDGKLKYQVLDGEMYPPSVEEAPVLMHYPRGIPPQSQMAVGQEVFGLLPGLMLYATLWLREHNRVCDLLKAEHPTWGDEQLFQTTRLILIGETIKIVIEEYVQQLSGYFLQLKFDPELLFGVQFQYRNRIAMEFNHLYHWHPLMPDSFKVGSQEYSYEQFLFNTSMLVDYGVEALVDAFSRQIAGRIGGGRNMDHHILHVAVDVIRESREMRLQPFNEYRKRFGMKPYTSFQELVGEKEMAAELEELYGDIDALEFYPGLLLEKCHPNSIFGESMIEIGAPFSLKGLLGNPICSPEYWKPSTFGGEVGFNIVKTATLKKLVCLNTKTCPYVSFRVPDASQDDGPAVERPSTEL

Cdc42 wt = Cdc42 wt (Homo sapiens, UniProt P60953); assay: Dose response, BODIPY-GTP binding; settings: 10 nM to 100 µM
Cdc42 wt, sequence (P60953 whole entry): as the sequence (P60766 whole entry) above

H-RasG12V = H-RasG12V (Homo sapiens, UniProt P01112, G12V); assay: Dose response, BODIPY-GTP binding; settings: 10 nM to 100 µM
Method: (§1) For multiplex analyses of small GTPases, 4 μm diameter glutathione-beads (GSH-beads) distinguished by seven different intensities of red fluorescence were used according to our previously described protocols. The GST-GTPases included the following eight Ras-related small GTPases: Rab2 wt, Rab7 wt, Cdc42 wt, Cdc42Q61L activating mutant, H-Ras wt, H-RasG12V, Rac1 wt and Rac1Q61L activating mutant. Briefly, Prestwick Chemical Library® compounds were tested at 10 μM compound and 1% DMSO final concentrations. After a 10 min pre-incubation with the compound BODIPY- FL-GTP (100 nM final) was added to each well and bead associated fluorescence was measured. Sample analysis was conducted with a HyperCyt® high throughput flow cytometry platform. Flow cytometric light scatter at 488 nm and fluorescence emission at 530 +/− 20 nm (FL1) and 665 +/− 10 nm (FL8) were collected on a Cyan ADP flow cytometer (Beckman Coulter, Fullerton, CA). IDLQuery software was used to determine the compound activity in each well. Gating based on forward scatter (FS) and side scatter (SS) parameters was used to identify singlet bead populations. Gating based on FL8 emission distinguishes the beads coated with different proteins, and the median FL1 fluorescence per bead population were calculated. A compound was considered a “potential active” if the change in BODIPY-FL-GTP binding differed greater than 20% from that measured in DMSO treated controls.
(§2) Test compounds identified for follow-up after the primary screen were tested at dilutions ranging from 10 nM to 100 μM final concentration against individual GTPases in multiplex and single-plex assays. Compounds tested in dose response assays were serially diluted 1:3 a total of eight times from a starting concentration of 10 mM giving a 9-point dilution series in DMSO.
(§3) bConfirmatory screens entailed dose response assays conducted in a multiplex format with eight GTPases tested as for primary screen. BODIPY-GTP-binding activity was
(§4) measured in the presence of 10 nM to 100 µM of each of 11 test compounds (4 primary screen hits and 7 additional NSAIDs considered to have chemical similarity to GTPase
(§5) active compounds). GST-GFP coated beads served as a control to detect non-specific dissociation or denaturation caused by compound addition–none of the tested NSAIDs had
(§6) any effect on bead-GST-protein binding. EC50 values were determined using Prism to determine dose response fits as shown in Figure 1 of main text; fits have R2 > 0.9. Active
(§7) compounds based on same definition used as in primary screena. […]
(§8) ‡A well-characterized selective Cdc42 inhibitor served as a positive control.

[6] = target: Cdc42Q61L activating mutant (Homo sapiens, UniProt P60953, Q61L); assay: Dose response, BODIPY-GTP binding; settings: 10 nM to 100 µM; read-out: Cdc42 (act) EC50
Cdc42Q61L activating mutant, sequence (P60953 whole entry Q61L): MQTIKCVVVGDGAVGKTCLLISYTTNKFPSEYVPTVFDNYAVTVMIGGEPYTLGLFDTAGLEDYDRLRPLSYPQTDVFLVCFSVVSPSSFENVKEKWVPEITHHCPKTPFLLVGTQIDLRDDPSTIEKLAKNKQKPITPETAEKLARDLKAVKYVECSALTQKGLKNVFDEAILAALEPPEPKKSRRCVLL

[7] = target: Rac1Q61L activating mutant (Homo sapiens, UniProt P63000, Q61L); assay: Dose response, BODIPY-GTP binding; settings: 10 nM to 100 µM
Rab7 = Rab7 (Homo sapiens, UniProt P51149); assay: Dose response, BODIPY-GTP binding; settings: 10 nM to 100 µM
Rab7, sequence (P51149 whole entry, species assumed): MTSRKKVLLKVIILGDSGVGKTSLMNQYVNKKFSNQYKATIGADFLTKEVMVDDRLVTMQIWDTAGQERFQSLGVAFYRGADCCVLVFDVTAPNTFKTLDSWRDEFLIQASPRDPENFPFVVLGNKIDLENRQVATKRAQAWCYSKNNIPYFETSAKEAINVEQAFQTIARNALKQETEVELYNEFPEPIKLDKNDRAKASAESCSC

human COX-2 = target: T3, human COX-2 (Homo sapiens, UniProt P35354); assay: Cyclooxygenase assay (CEREP), PGE2 formation; type: biochemical; settings: recombinant enzyme, 4 μM arachidonic acid
T3 construct: purchased CEREP Laboratories (contract assay); host or cells: Sf-9
T3 sequence (P35354 18-604): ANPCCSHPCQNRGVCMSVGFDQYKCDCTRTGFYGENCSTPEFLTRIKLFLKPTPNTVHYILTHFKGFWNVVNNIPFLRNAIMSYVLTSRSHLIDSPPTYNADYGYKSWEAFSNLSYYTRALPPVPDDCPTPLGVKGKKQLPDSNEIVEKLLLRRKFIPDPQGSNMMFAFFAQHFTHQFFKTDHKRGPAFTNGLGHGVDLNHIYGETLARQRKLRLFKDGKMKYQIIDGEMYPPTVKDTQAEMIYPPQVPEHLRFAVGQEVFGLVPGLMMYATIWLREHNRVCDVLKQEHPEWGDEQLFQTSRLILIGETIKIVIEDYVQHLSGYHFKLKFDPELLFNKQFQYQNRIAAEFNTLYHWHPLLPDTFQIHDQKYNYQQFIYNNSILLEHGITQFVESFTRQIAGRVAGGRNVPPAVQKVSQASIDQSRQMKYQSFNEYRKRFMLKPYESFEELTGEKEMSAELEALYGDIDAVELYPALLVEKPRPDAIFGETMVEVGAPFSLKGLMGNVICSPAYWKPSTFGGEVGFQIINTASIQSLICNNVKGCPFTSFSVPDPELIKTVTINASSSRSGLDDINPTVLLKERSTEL

H-Ras wt = H-Ras wt (Homo sapiens, UniProt P01112); assay: Dose response, BODIPY-GTP binding; settings: 10 nM to 100 µM
Method: as §1, §2, §3, §4, §5, §6, §7

Rab2 = Rab2 (Homo sapiens, UniProt P61019); assay: Dose response, BODIPY-GTP binding; settings: 10 nM to 100 µM
Rab2, sequence (P61019 whole entry, species assumed): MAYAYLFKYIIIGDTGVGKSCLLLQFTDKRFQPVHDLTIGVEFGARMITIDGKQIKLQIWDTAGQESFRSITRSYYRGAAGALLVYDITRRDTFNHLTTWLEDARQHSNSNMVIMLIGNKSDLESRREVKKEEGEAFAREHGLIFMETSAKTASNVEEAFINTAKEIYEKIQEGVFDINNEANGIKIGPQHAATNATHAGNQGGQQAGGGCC

Rac1 wt = Rac1 wt (Homo sapiens, UniProt P63000); assay: Dose response, BODIPY-GTP binding; settings: 10 nM to 100 µM
Rac1 [8] = settings: cited from earlier work
[9] = tested on: OvCa429 and OvCa433 cells; assay: Boyden chamber cell migration assay; type: cell-based, human; settings: estimated from limited dose response data; read-out: IC50 migration Rac1/Cdc42 dependent (est)
[10] = tested on: Rac1 membrane localization; assay: Rac1 immunolocalization, OvCa433 cells; type: cell-based, human
[11] = tested on: Rab2 wt, Rab7 wt, Cdc42 wt, Cdc42Q61L, H-Ras wt, H-RasG12V, Rac1 wt and Rac1Q61L; assay: Primary multiplex screen, BODIPY-FL-GTP binding on bead-bound GTPases (flow cytometry)
COX-1 = settings: IC50 values not calculated; thromboxane B2, collagen-stimulated human platelets; cited from earlier work
[12] = tested on: Rac1 and Tiam1 protein levels; assay: Immunoblot of protein levels; type: cell-based, human
Method: Cells were stimulated with EGF at a final concentration of 1 nM for 10 min. Cells were lysed in a RIPA buffer consisting of 50 mM Tris pH 7.4, 1% NP-40, 0.25% sodium deoxycholate, 150 mM NaCl, 1 mM EDTA, 1 mM PMSF, 1 mM sodium vanadate, 10 mM sodium fluoride, 1 μg/mL each of pepstatin, aprotinin and leupeptin, 10 mM sodium pyrophosphate and 10 mM beta-glycerophosphate.
N = 3. See also Figure D in S1 File for time dependent loss of Rac1 membrane localization. N = 3 (B) Quantification of image intensity using Image J of 3 representative confocal images as shown in panel (A) containing 20–30 cells/field normalized to actin and untreated controls. (C) Western blot analyses of lysates from cells treated with 300 μM compound as indicated for 24 h as compared to untreated controls. […] Blots were probed for Tiam1 (200 kDa), GAPDH (37 kDa), Rac1 (20 kDa), as a loading control. (D) Quantification of image intensity using Image J. Each marker was normalized to GAPDH and untreated controls. N = 3.

OvCa429 cells = settings: 300 μM, relative to 6-MNA
OvCa433 cells = settings: 0-300 µM, 48 h
Rac1 [13] = target: T4, Rac1 (Mus musculus, UniProt P63001); assay: GLISA, Swiss 3T3 cells; type: cell-based; settings: for EGF-mediated Rac1 activation: 300 μM
T4 construct: endogenous in cells; host or cells: Swiss 3T3

Ras-related GTPases = assay: Confirmatory dose response assays on eight Ras-related GTPases; type: binding
Method: as §1, §2, §3, §4, §5, §6, §7, §8

[14] = tested on: Tiam1 membrane localization; assay: Tiam1 immunolocalization, OvCa433 cells; type: cell-based, human
Method: OvCa433 were plated on coverslips, treated with 300 μM NSAIDs for 1 h, fixed with 3% paraformaldehyde and immunostained for Rac1 or Tiam1. Actin was visualized with rhodamine phalloidin from Invitrogen (F432). Cells were imaged on a Zeiss LSM510 using a 63x objective and quantified using Image J.
Rac1 and Tiam1 antibodies were confirmed in our hands to recognize single protein species of the predicted molecular weight by immunoblot.

Rac1 [15] = target: T5, Rac1 (Homo sapiens, UniProt P63000); assay: G-trap flow cytometric effector binding assay, HeLa cells; type: cell-based; settings: ketorolac enantiomers, EGF stimulation, read-out: EC50 against Rac1
T5 construct: endogenous in cells; host or cells: HeLa

purified ovine COX-1 = tested on: purified ovine COX-1; design: method as in ref 14 (a number printed in a supplementary file, which may have a reference list of its own: not looked up in the article's list); settings: purified ovine enzyme; cited from earlier work
Cdc42 [16] = target: T6, Cdc42 (Homo sapiens, UniProt P60953); assay: G-trap flow cytometric effector binding assay, HeLa cells; type: cell-based; settings: ketorolac enantiomers, EGF stimulation, read-out: EC50 against Cdc42
T6 construct: endogenous in cells; host or cells: HeLa
T6 sequence (P60953 whole entry): as the sequence (P60766 whole entry) above

COX-2 = tested on: COX-2; design: method as in ref 15 (a number printed in a supplementary file, which may have a reference list of its own: not looked up in the article's list); settings: ovine seminal vesicles or human whole blood; cited from earlier work
purified ovine COX-2 = tested on: purified ovine COX-2; design: method as in ref 14 (a number printed in a supplementary file, which may have a reference list of its own: not looked up in the article's list); settings: purified ovine enzyme; cited from earlier work
[17] = immunofluorescence quantified using ImageJ

Structure (SMILES): COc1ccc(C2CC(c3ccccc3)=NN2c2ccc(S(N)(=O)=O)cc2)cc1 (centres unmarked) [CID2950007/ML141]
IC50 [4]: ~10 µM | IC50 (Cdc42 [5]): 2.1 to 2.6 µM | IC50 (human COX-1): 1.8 µM | EC50 (Cdc42 wt): 2.6 µM | H-Ras (act) EC50 (H-RasG12V): inactive | EC50 [6]: 5.4 µM | Rac1 (act) EC50 [7]: inactive | Rab7 EC50 (Rab7): inactive | IC50 (human COX-2): 0.58 µM | H-Ras wt EC50 (H-Ras wt): inactive | Rab2 EC50 (Rab2): inactive | Rac1 wt EC50 (Rac1 wt): inactive

Structure (SMILES): CCN(CC)CCCC(C)Nc1nc(C)cc(Nc2ccc3nc(C)cc(N)c3c2)n1 (centres unmarked) [NSC23766]
IC50 (Rac1 [8]): […] | IC50 [9]: < 30 µM

Structure (SMILES): COc1ccc2cc([C@@H](C)C(=O)O)ccc2c1 [R-naproxen]
Rac1 membrane localization ([10]; 300 μM): substantially reduced | Rac PM Localiz. [10, 17]: 34% | primary screen outcome ([11]; 10 μM compound): positive and hit | Primary Screen Hit ([11]; single dose 10 µM, change in BODIPY-GTP binding on any one GTPase): Active | COX-1 Previously Published (COX-1): R>S | H-Ras (act) EC50 (H-RasG12V): inactive | Rab7 EC50 (Rab7): inactive | total Rac1 or Tiam1 protein levels ([12]; 300 μM, 24 h, immunoblot): did not alter | Rac protein expression ([12]; immunoblot analysis): No change | invadopodia formation (OvCa429 cells): inhibited | cytotoxicity (OvCa433 cells): not cytotoxic | EGF-mediated Rac1 activation (Rac1 [13]; 15 min pretreatment): significantly inhibited | EGF-mediated Rac1 activation (Rac1 [13]; 1 h pretreatment): reduced activation to basal unstimulated levels | inhibition at 300 µM (Rac1 [13]; Swiss-3T3, at 300 µM): 100% | H-Ras wt EC50 (H-Ras wt): inactive | Rab2 EC50 (Rab2): inactive | activity against the GTPases in confirmatory dose response assays (words) (Ras-related GTPases; 10 nM to 100 µM): varying activity levels | EC50 (Ras-related GTPases; additional confirmatory dose response assays, different conditions): 3 to 18 µM | Tiam1 membrane localization ([14]; 300 μM): substantially reduced | Tiam1 GEF PM localiz. [14, 17]: 32%

The next lines start with results.

IC50 [1]: 34 µM | effect on Cdc42 relative to R-ketorolac (Cdc42 [3]; at 10 μM): approximately half the effect
Structure (SMILES): O=C(c1ccccc1)c1ccc2n1CCC2C(=O)O (racemic) [racemic ketorolac, ketorolac]
Cmax [2]: 13.7 µM

IC50 [1]: 7 µM | EC50 (Rac1 [15]): 0.574 µM | IC50 (human COX-1): 0.99 µM | dose of maximal inhibition of Cdc42 activation (Cdc42 [3]; 1 h pretreatment, EGF stimulation): 10 µM | EC50 (Cdc42 [16]): 1.07 µM | IC50 (human COX-2): > 100 µM | dose of maximal inhibitory activity against Rac1 (Rac1 [13]; 1 h preincubation, EGF stimulation): 50 µM
Structure (SMILES): O=C(c1ccccc1)c1ccc2n1CC[C@H]2C(=O)O [R-ketorolac]
COX-1 IC50 Previously Published (purified ovine COX-1): Not sig | COX-2 IC50 Previously Published (COX-2): Not sig | COX-2 IC50 Previously Published (purified ovine COX-2): Not sig
